Measurements as given in PubChem BioAssay (NCI).
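48-hour exposure; five concentrations; linearly interpolated endpoints. Definition used: TGI = concentration required for complete inhibition of growth.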

Key:
Assay in all cases: NCI tumour cell line growth inhibition, 48 h
NCI-H522 lung = system: NCI-H522 lung
CAKI-1 renal = system: CAKI-1 renal
UO-31 renal = system: UO-31 renal
MDA-N = system: MDA-N
UACC-257 melanoma = system: UACC-257 melanoma
OVCAR-5 ovarian = system: OVCAR-5 ovarian
SK-MEL-5 melanoma = system: SK-MEL-5 melanoma
HCT-15 colon = system: HCT-15 colon
RPMI-8226 leukemia = system: RPMI-8226 leukemia
DU-145 prostate = system: DU-145 prostate
K-562 leukemia = system: K-562 leukemia
OVCAR-4 ovarian = system: OVCAR-4 ovarian
BT-549 breast = system: BT-549 breast
MDA-MB-231 breast = system: MDA-MB-231 breast
COLO 205 colon = system: COLO 205 colon
OVCAR-3 ovarian = system: OVCAR-3 ovarian
SNB-75 CNS = system: SNB-75 CNS
UACC-62 melanoma = system: UACC-62 melanoma
HOP-92 NSCLC = system: HOP-92 NSCLC
A549 NSCLC = system: A549 NSCLC
NCI-H460 lung = system: NCI-H460 lung
HS 578T breast = system: HS 578T breast
HL-60(TB) leukemia = system: HL-60(TB) leukemia
MCF7 breast = system: MCF7 breast
SN12C renal = system: SN12C renal
MDA-MB-435 = system: MDA-MB-435
SK-MEL-2 melanoma = system: SK-MEL-2 melanoma
NCI-H23 lung = system: NCI-H23 lung
HOP-62 NSCLC = system: HOP-62 NSCLC
HT29 colon = system: HT29 colon
TK-10 renal = system: TK-10 renal
A498 renal = system: A498 renal
CCRF-CEM leukemia = system: CCRF-CEM leukemia
MOLT-4 leukemia = system: MOLT-4 leukemia
RXF 393 renal = system: RXF 393 renal
SF-539 CNS = system: SF-539 CNS
KM12 colon = system: KM12 colon
EKVX NSCLC = system: EKVX NSCLC
U251 CNS = system: U251 CNS
SNB-19 CNS = system: SNB-19 CNS
NCI/ADR-RES ovarian = system: NCI/ADR-RES ovarian
IGROV1 ovarian = system: IGROV1 ovarian
OVCAR-8 ovarian = system: OVCAR-8 ovarian
M14 melanoma = system: M14 melanoma
786-0 renal = system: 786-0 renal
MALME-3M melanoma = system: MALME-3M melanoma
SK-OV-3 ovarian = system: SK-OV-3 ovarian
HCT-116 colon = system: HCT-116 colon
NCI-H226 lung = system: NCI-H226 lung
SW-620 colon = system: SW-620 colon
ACHN renal = system: ACHN renal
HCC-2998 colon = system: HCC-2998 colon
PC-3 prostate = system: PC-3 prostate
SF-268 CNS = system: SF-268 CNS
SR leukemia = system: SR leukemia
LOX IMVI melanoma = system: LOX IMVI melanoma
SF-295 CNS = system: SF-295 CNS
T-47D breast = system: T-47D breast
SK-MEL-28 melanoma = system: SK-MEL-28 melanoma

Question: Which results are given for `CC(C)CCC[C@@H](C)C1CCC2[C@@H]3CCC4CC(CCC=C(c5cc(Cl)c(OC(=O)c6ccccc6)c(C(=O)O)c5)c5cc(Cl)c(OC(=O)c6ccccc6)c(C(=O)O)c5)CC[C@]4(C)C3CC[C@@]21C` (stereo not given in full)?
Answer: TGI (NCI-H522 lung): > 100 µM; TGI (CAKI-1 renal): > 100 µM; TGI (UO-31 renal): > 100 µM; TGI (MDA-N): > 100 µM; TGI (UACC-257 melanoma): > 100 µM; TGI (OVCAR-5 ovarian): > 100 µM; TGI (SK-MEL-5 melanoma): 78.8 µM; TGI (HCT-15 colon): > 100 µM; TGI (RPMI-8226 leukemia): > 100 µM; TGI (DU-145 prostate): > 100 µM; TGI (K-562 leukemia): > 100 µM; TGI (OVCAR-4 ovarian): > 100 µM; TGI (BT-549 breast): > 100 µM; TGI (MDA-MB-231 breast): 26.5 µM; TGI (COLO 205 colon): > 100 µM; TGI (OVCAR-3 ovarian): > 100 µM; TGI (SNB-75 CNS): > 100 µM; TGI (UACC-62 melanoma): > 100 µM; TGI (HOP-92 NSCLC): 73.3 µM; TGI (A549 NSCLC): > 100 µM; TGI (NCI-H460 lung): > 100 µM; TGI (HS 578T breast): > 100 µM; TGI (HL-60(TB) leukemia): > 100 µM; TGI (MCF7 breast): > 100 µM; TGI (SN12C renal): > 100 µM; TGI (MDA-MB-435): > 100 µM; TGI (SK-MEL-2 melanoma): > 100 µM; TGI (NCI-H23 lung): > 100 µM; TGI (HOP-62 NSCLC): > 100 µM; TGI (HT29 colon): > 100 µM; TGI (TK-10 renal): > 100 µM; TGI (A498 renal): > 100 µM; TGI (CCRF-CEM leukemia): > 100 µM; TGI (MOLT-4 leukemia): > 100 µM; TGI (RXF 393 renal): > 100 µM; TGI (SF-539 CNS): > 100 µM; TGI (KM12 colon): > 100 µM; TGI (EKVX NSCLC): > 100 µM; TGI (U251 CNS): > 100 µM; TGI (SNB-19 CNS): > 100 µM; TGI (NCI/ADR-RES ovarian): > 100 µM; TGI (IGROV1 ovarian): 94.3 µM; TGI (OVCAR-8 ovarian): > 100 µM; TGI (M14 melanoma): 29.3 µM; TGI (786-0 renal): 75.2 µM; TGI (MALME-3M melanoma): > 100 µM; TGI (SK-OV-3 ovarian): > 100 µM; TGI (HCT-116 colon): > 100 µM; TGI (NCI-H226 lung): > 100 µM; TGI (SW-620 colon): > 100 µM; TGI (ACHN renal): > 100 µM; TGI (HCC-2998 colon): > 100 µM; TGI (PC-3 prostate): > 100 µM

Question: Which results are given for `CC(C)(C)N1NC1C1NN1C(C)(C)C` (stereo not given)?
Answer: TGI (NCI-H522 lung): > 100 µM; TGI (CAKI-1 renal): > 100 µM; TGI (UO-31 renal): > 100 µM; TGI (MDA-N): > 100 µM; TGI (UACC-257 melanoma): > 100 µM; TGI (OVCAR-5 ovarian): > 100 µM; TGI (SK-MEL-5 melanoma): > 100 µM; TGI (HCT-15 colon): > 100 µM; TGI (RPMI-8226 leukemia): > 100 µM; TGI (DU-145 prostate): > 100 µM; TGI (K-562 leukemia): > 100 µM; TGI (OVCAR-4 ovarian): > 100 µM; TGI (MDA-MB-231 breast): > 100 µM; TGI (COLO 205 colon): > 100 µM; TGI (OVCAR-3 ovarian): > 100 µM; TGI (SNB-75 CNS): > 100 µM; TGI (UACC-62 melanoma): > 100 µM; TGI (HOP-92 NSCLC): > 100 µM; TGI (A549 NSCLC): > 100 µM; TGI (NCI-H460 lung): > 100 µM; TGI (HS 578T breast): > 100 µM; TGI (MCF7 breast): > 100 µM; TGI (SN12C renal): > 100 µM; TGI (SF-268 CNS): > 100 µM; TGI (MDA-MB-435): > 100 µM; TGI (SK-MEL-2 melanoma): > 100 µM; TGI (NCI-H23 lung): > 100 µM; TGI (HOP-62 NSCLC): > 100 µM; TGI (HT29 colon): > 100 µM; TGI (TK-10 renal): > 100 µM; TGI (A498 renal): > 100 µM; TGI (CCRF-CEM leukemia): > 100 µM; TGI (MOLT-4 leukemia): > 100 µM; TGI (RXF 393 renal): > 100 µM; TGI (SF-539 CNS): > 100 µM; TGI (KM12 colon): > 100 µM; TGI (EKVX NSCLC): > 100 µM; TGI (U251 CNS): > 100 µM; TGI (SNB-19 CNS): > 100 µM; TGI (NCI/ADR-RES ovarian): > 100 µM; TGI (SR leukemia): > 100 µM; TGI (IGROV1 ovarian): > 100 µM; TGI (LOX IMVI melanoma): > 100 µM; TGI (OVCAR-8 ovarian): > 100 µM; TGI (M14 melanoma): > 100 µM; TGI (786-0 renal): > 100 µM; TGI (MALME-3M melanoma): > 100 µM; TGI (SF-295 CNS): > 100 µM; TGI (SK-OV-3 ovarian): > 100 µM; TGI (HCT-116 colon): > 100 µM; TGI (NCI-H226 lung): > 100 µM; TGI (SW-620 colon): > 100 µM; TGI (ACHN renal): > 100 µM; TGI (T-47D breast): > 100 µM; TGI (SK-MEL-28 melanoma): > 100 µM; TGI (HCC-2998 colon): > 100 µM; TGI (PC-3 prostate): > 100 µM
